# Measurements as given in US7470821B2, “Aldolase-inhibiting aromatic compounds” (Valorisation-Recherche, Limited Partnership, priority 2003, dated 2008).
# “And” between values parts separate entries of the source, which are not always exact repeats. Identical values can stand only once. Like-named read-outs stand apart in the source and are kept apart here.
# Columns and labels:
# [1] = target: T1, native (wild-type) rabbit muscle aldolase (Oryctolagus cuniculus, UniProt P00883); assay: UV-visible differential spectroscopy (method A) of aldolase-inhibitor complex formation; assay type: binding; details: for ΔA relative to 432 nm / kapp: wild-type; for kapp: 431 nm
# T1 construct: made in house
# T1 sequence (P00883 2-364): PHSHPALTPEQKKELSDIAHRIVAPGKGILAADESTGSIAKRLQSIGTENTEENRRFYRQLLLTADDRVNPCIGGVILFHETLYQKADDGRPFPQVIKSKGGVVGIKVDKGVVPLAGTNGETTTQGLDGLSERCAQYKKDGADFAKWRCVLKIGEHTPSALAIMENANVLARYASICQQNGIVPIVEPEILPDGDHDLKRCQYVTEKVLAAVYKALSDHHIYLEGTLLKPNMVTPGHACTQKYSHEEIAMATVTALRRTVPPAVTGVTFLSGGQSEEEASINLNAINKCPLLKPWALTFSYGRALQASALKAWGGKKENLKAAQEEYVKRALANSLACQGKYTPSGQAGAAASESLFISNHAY
# Procedure: Absorption spectra are measured using a Cary 1E Varian spectrophotometer at 25° C. The same TEA buffer is used for titrations and activity analyses. Absorption spectra are measured by two different methods, in particular as described in Gefflaut T. et al., 1986 (Bioorg. Med. Chem., 4:2043-2054) and Blonski C. et al., 1997 (Biochem J. 323:71-77).
# (§1) For method A, absorption spectra are recorded as a function of time, between 250 and 500 nm, or at wavelengths corresponding to maximum or minimum absorption. Measurements are begun by adding FHN-P at varying final concentrations (0.1-1 mM) in the TEA buffer containing a fixed concentration of aldolase (10 μM of subunits). Measured absorption spectra for the enzyme complex are corrected using the absorbance of the buffer, the FHN—P, and the enzyme (measured separately). The differential absorption spectra thus obtained are used to calculate the value of the constants that define the formation of the aldolase-inhibitor complex.
# The apparent first-order rate constant (kapp) and the maximum threshold variations of absorption (ΔAmax) are obtained for each test by applying the slow-binding absorption data to the first-order kinetic equation (or to both first-order kinetic mechanisms). The dissociation constant (Kd) for the Schiff base formed between the FHN-P and the aminocaproic acid is obtained from the absorption differences calculated at equilibrium by using the equation eqn.(2). The value of the dissociation constant (Ki) for the rapidly formed EI complex and that of the constant k2 correspond to the slow formation of the EI* complex resulting from analysis of the values of the first-order constants based on the equations eqn.(1) or eqn.(3).
# The slight differences in band positions with the reaction model may be attributed to differences in the FHN-P protein environment in comparison to the model system. The changing spectra of absorbance differences coincides with two distinct first-order mechanisms. The rapid kinetics phase can be seen in a more significant change in absorbance and saturating behavior at a high inhibitor concentration, correlated with a total loss of enzyme activity. A slow kinetics phase can also be seen when the analyses are carried out at saturating concentrations of hexitol-P2 (10 mM). This slow kinetics phase, which corresponds to a constant thirty times weaker and which contributes to one-fourth of the final absorbance variation is not linked to the inhibition observed. At these saturating concentrations, the molar absorption coefficients relative to the linked FHN-P are calculated assuming that the for active aldolase sites are occupied: Δε431=3600±200 M^−1.cm^−1; Δε376=−2140±110 M^−1.cm^−1; Δε293=12480±650 M^−1.cm^−1; and Δε268=5080±250 M^−1.cm^−1.
# (§2) Residues of lysine 106, 146 and 229 residues are located at the active aldolase sites and thus are candidates for causing inactivation by forming a Schiff base with the FHN-P. In order to identify which lysine is responsible for the differential absorbances in the presence of FHN-P, sporadic mutations of these lysine residues were created and named: K107M (Research Collaboratory for Structural Bioinformatics Protein Databank), K146M (Blonski C. et al., 1997, Biochem. J. 323:71-77) and […] (Research Collaboratory for Structural Bioinformatics Protein Databank). […] UV-visible differential spectroscopy (method A) was used to examine formation of the enzyme complex for each sporadic mutation in the presence of a fixed concentration of FHN-P (300 μM).
# K229M mutant RM aldolase = target: T2, K229M mutant RM aldolase (Oryctolagus cuniculus, UniProt P00883, K230M); assay: UV-visible differential spectroscopy (method A) with mutated aldolase K229M; assay type: binding, rabbit; details: FHN-P 300 μM; for kapp: 431 nm
# T2 construct: made in house
# T2 sequence (P00883 1-364 K230M): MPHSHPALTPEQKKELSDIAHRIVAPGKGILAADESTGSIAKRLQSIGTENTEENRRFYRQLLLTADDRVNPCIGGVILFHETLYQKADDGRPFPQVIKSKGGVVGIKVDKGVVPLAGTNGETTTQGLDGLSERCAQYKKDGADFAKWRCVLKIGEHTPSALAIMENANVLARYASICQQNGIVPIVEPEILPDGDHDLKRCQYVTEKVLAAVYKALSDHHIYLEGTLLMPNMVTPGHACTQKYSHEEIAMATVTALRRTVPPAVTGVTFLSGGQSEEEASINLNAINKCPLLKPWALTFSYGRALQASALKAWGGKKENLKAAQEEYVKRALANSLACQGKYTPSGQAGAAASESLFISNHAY
# Procedure: as §1
# Every UV-visible differential test spectroscopy test using mutated aldolases (10 μM of subunits) is carried out using method A. • Monitored by Electrospray Ionization Mass Spectrometry (ESI-MS).
# as §2
# [2] = formation of EI* complex, UV-visible differential spectroscopy
# [3] = FHN-P 300 μM, first (rapid) phase
# [4] = FHN-P 300 μM, second (slow) phase
smiles,measurement,setting,value
"O=Cc1c(O)ccc2cc(OP(=O)(O)O)ccc12 [FHN-P, 5-formyl-6-hydroxy-2-naphthylphosphate]",Ki,"[1]; EI complex, UV-visible differential spectroscopy, FHN-P 0.1-1 mM, aldolase 10 μM subunits, 25° C, read-out: Ki",125000 ± 25000 nM
same,Ki,"[1]; calculated from the spectroscopy results, read-out: global inhibition constant Ki*",25 nM and ~25 nM
same,k2,[1]; [2],0.067 ± 0.004 min⁻¹
same,t1/2,[1]; [2],~6 min
same,stoichiometry of FHN-P linked per tetrameric aldolase,"[1]; maximum inhibition, EI* complex",3.9-4.2 mols of FHN-P linked per tetrameric aldolase mole
same,Residual specific activity,"[1]; wild-type aldolase, FHN-P 300 μM",ud (undetected)
same,ΔA relative to 432 nm,[1]; [3],100%
same,kapp,[1]; [3],0.045 ± 0.0025 min⁻¹
same,ΔA relative to 432 nm,[1]; [4],25%
same,kapp,[1]; [4],0.0015 ± 0.00035 min⁻¹
same,Residual specific activity,K229M mutant RM aldolase,ud
same,ΔA relative to 432 nm,K229M mutant RM aldolase; first (rapid) phase,95%
same,kapp,K229M mutant RM aldolase; first (rapid) phase,0.040 ± 0.0025 min⁻¹
same,ΔA relative to 432 nm,K229M mutant RM aldolase; second (slow) phase,25%
same,kapp,K229M mutant RM aldolase; second (slow) phase,0.0015 ± 0.0003 min⁻¹
